Converted amounts (≈) assume the structure as drawn.

What is called solubility is how much of the substance goes into solution per volume. Lower therefore signals little dissolved substance.

Format in all cases: physicochemical
Data set [1] in a line: Solid-state stability test (high temperature, high humidity, light exposure, acceleration); purity by HPLC, crystal form by XRPD. The following applies: for change in the purity and form: 15 days under 60°C, 92.5% RH, 4500lux and 40°C/75% RH, respectively. On the procedure:
Put an appropriate amount of the test sample (the compound shown by Formula (I) in the form of Crystal Form A) on a watch glass, spread it into a thin layer ≤ 5mm thick, and place it under a high temperature of 60°C, a high humidity of 92.5% RH, a light exposure of 4500lux and an acceleration condition of 40°C/75% RH for 15 days, respectively. Sample on the 7th and 15th day to observe the color change of the samples. Analyze the sample purity and crystal form through HPLC and XPRD detection, respectively. Table 5. Test results of Crystal Form A and amorphous stability
Put an appropriate amount of the test sample (the compound shown by Formula (II) in the form of Crystal Form B) on a watch glass, spread it into a thin layer ≤ 5mm thick, and place it under a high temperature of 60°C, a high humidity of 92.5% RH, a light exposure of 4500lux and an acceleration condition of 40°C/75% RH for 15 days, respectively. Sample on the 15th day to observe the color change of the sample. Analyze the sample purity and crystal form through HPLC and XPRD detection, respectively. Table 8. Test results of Crystal Form B stability

A short description of data set [2]: Solubility test in biological media (FaSSIF, FeSSIF), HPLC detection. As to conditions: for solubility (result in words): in FeSSIF and FaSSIF; for solubility at 0.5 h / solubility at 2 h / solubility at 24 h: 37°C. On the procedure:
Add 20mg of the sample (the compound shown by Formula (I) in the form of Crystal Form A) into a 10ml conical tube, and then add 4ml of water or biological medium (FeSSIF (pH 5.0) or FaSSIF (pH 6.5)), respectively. Shake the solution at 37°C for 24h in a constant temperature bath at 1000rpm, and take samples at 0.5h, 2h and 24h, respectively. Filter the samples through an aquo-system microporous filter membrane and discard the initial filtrate to obtain the test solution.
Perform an HPLC detection for the test solution (20µL), and calculate the sample concentration according to the standard curve method. Table 3. Solubility test results of Crystal Form A in different media
Add 20mg of the sample (the compound shown by Formula (II) in the form of Crystal Form B) into a 10ml conical tube, and then add 4ml of water or biological medium (FeSSIF (pH 5.0) or FaSSIF (pH 6.5)), respectively. Shake the solution at 37°C for 24h in a constant temperature bath at 1000rpm, and take samples at 0.5h, 2h and 24h, respectively. Filter the samples through an aquo-system microporous filter membrane and discard the initial filtrate to obtain the test solution.
Perform an HPLC detection for the test solution (20µL), and calculate the sample concentration according to the standard curve method. Table 6. Solubility test results of Crystal Form B in different media

A short description of data set [3]: Hygroscopicity test with dynamic moisture absorber (DVS). The following applies: for Weight gain at 80% RH: 25°C; for hygroscopicity (according to the definition criteria for hygroscopic weight gain): based on weight gain at 80% RH. On the procedure: The hygroscopicity results in the present invention can be measured using a DVS Intrinsic dynamic moisture and gas absorber from Surface Measurement Systems of the UK. Humidity variation: 50%-95%-0%-50%. The humidity change for each gradient within0% ~ 90% is 10%. Airflow: 200ml/min; temperature: 25°C; testing point: one testing point taken every 10% increase in humidity.
Take an appropriate amount of the test sample (the compound shown by Formula (I) in the form of Crystal Form A) to test its hygroscopicity with a dynamic moisture absorber. Table 4. Hygroscopicity test results for Crystal Form A of the present invention
Take an appropriate amount of the test sample (the compound shown by Formula (II) in the form of Crystal Form B) to test its hygroscopicity with a dynamic moisture absorber. Table 7. Hygroscopicity test results for Crystal Form B of the present invention

With `O=C(N[C@@H](Cc1ccc(N2C(=O)C3(CC3)c3ccc(F)c(F)c32)cc1)C(=O)O)c1c(F)cccc1Cl` [Amorphous, (S)-2-(2-chloro-6-fluorobenzoyl amido)-3-(4-(6',7'-difluoro-2'-oxospiro [cyclopropane-1,3'-indoline]-1'-yl)phenyl) propionic acid], the purity in data set [1] (Acceleration 40°C/75%RH, 15d) was 89.70%; in data set [1] (High humidity 92.5%RH, 15d), 93.06%; in data set [1] (High temperature 60°C, 15d) it was 91.89%; in data set [1] (Light exposure 4500lux, 15d), 94.91%.
Regarding `O=C(N[C@@H](Cc1ccc(N2C(=O)C3(CC3)c3ccc(F)c(F)c32)cc1)C(=O)O)c1c(F)cccc1Cl` [Crystal Form A, (S)-2-(2-chloro-6-fluorobenzoyl amido)-3-(4-(6',7'-difluoro-2'-oxospiro [cyclopropane-1,3'-indoline]-1'-yl)phenyl) propionic acid], the “solubility (result in words)” value in data set [2] is listed as “good solubility”; in data set [2] (listed as Crystal form A) it was “relatively good”. In addition, the “change in the purity and form” value in data set [1] was “no significant change”. For the same compound, the “Form (crystal form by XRPD)” value was “Unchanged” in data set [1] (Acceleration 40°C/75%RH, 7d); “Unchanged” in data set [1] (Acceleration 40°C/75%RH, 15d); “Unchanged” in data set [1] (High humidity 92.5%RH, 7d); “Unchanged” in data set [1] (High humidity 92.5%RH, 15d); “Unchanged” in data set [1] (High temperature 60°C, 7d); “Unchanged” in data set [1] (High temperature 60°C, 15d). Moreover, the “Form (crystal form by XRPD)” value is recorded as “Unchanged” in data set [1] (Light exposure 4500lux, 7d) and “Unchanged” in data set [1] (Light exposure 4500lux, 15d). Also, the purity in data set [1] (Acceleration 40°C/75%RH, 7d) is reported as 99.4%; in data set [1] (Acceleration 40°C/75%RH, 15d) it was 99.4%; in data set [1] (High humidity 92.5%RH, 7d), 99.3%; in data set [1] (High humidity 92.5%RH, 15d), 99.3%; in data set [1] (High temperature 60°C, 7d), 99.4%; in data set [1] (High temperature 60°C, 15d) it was 99.4%. Besides, the purity in data set [1] (Light exposure 4500lux, 7d) worked out at 99.2%; in data set [1] (Light exposure 4500lux, 15d), 99.2%. Besides, the “Weight gain at 80% RH” value in data set [3] is 0.09%. The “hygroscopicity (according to the definition criteria for hygroscopic weight gain)” value in data set [3] was “no or almost no hygroscopicity”.
On to `O=C(N[C@@H](Cc1ccc(N2C(=O)C3(CC3)c3ccc(F)c(F)c32)cc1)C(=O)O)c1c(F)cccc1Cl` [Crystal Form B, (S)-2-(2-chloro-6-fluorobenzoyl amido)-3-(4-(6',7'-difluoro-2'-oxospiro [cyclopropane-1,3'-indoline]-1'-yl)phenyl) propionic acid], for which the results for the solubility at 0.5 h in data set [2] (FaSSIF (pH 6.5)) and in data set [2] (FeSSIF (pH 5.0)) were 3190 µg/mL (≈ 6.19 mM) and 869 µg/mL (≈ 1.69 mM), respectively. The solubility at 2 h in data set [2] (FaSSIF (pH 6.5)) is 2960 µg/mL (≈ 5.75 mM); in data set [2] (FeSSIF (pH 5.0)), 815 µg/mL (≈ 1.58 mM). Besides, the solubility at 24 h in data set [2] (FaSSIF (pH 6.5)) was 2790 µg/mL (≈ 5.42 mM); in data set [2] (FeSSIF (pH 5.0)), 734 µg/mL (≈ 1.43 mM). For the same compound, the “solubility (result in words)” value is reported as “good solubility” in data set [2] and “relatively good” in data set [2] (listed as Crystal form B). Further, in data set [1], the “change in the purity and form” value was “no significant change”. For the same compound, the purity in data set [1] (Acceleration 40°C/75%RH, 0d) is 99.79%; in data set [1] (High humidity 92.5%RH, 0d), 99.79%; in data set [1] (High temperature 60°C, 0d) it was 99.79%; in data set [1] (Light exposure 4500lux, 0d), 99.79%. Also, the “Form (crystal form by XRPD)” value in data set [1] (Acceleration 40°C/75%RH, 15d) is given as “Unchanged”; in data set [1] (High humidity 92.5%RH, 15d), “Unchanged”; in data set [1] (High temperature 60°C, 15d), “Unchanged”; in data set [1] (Light exposure 4500lux, 15d), “Unchanged”. The “Weight gain at 80% RH” value in data set [3] amounted to 0.71%. Moreover, the “hygroscopicity (according to the definition criteria for hygroscopic weight gain)” value in data set [3] is “a slight hygroscopicity”.

Source of the values: patent EP4538272B1, “CRYSTAL OF N-(BENZOYL)-PHE[…], AND PHARMACEUTICAL COMPOSITION THEREOF, AND PREPARATION METHOD THEREFOR AND USE THEREOF” (Hangzhou Apeloa Medicine Research Institute Co., Ltd., priority 2022, dated 2023).
